Measured values as given in patent publication US20190150437A1, “USE OF SESQUITERPENES AND THEIR ANALOGS AS GREEN INSECTICIDES FOR CONTROLLING DISEASE VECTORS AND PLANT PESTS” (Ohio State Innovation Foundation, priority 2016, published 2019).
Entries after “also recorded” stand apart in the source; their conditions may differ. Marks after values point to notes of the source that are not given here.

Experiments:
[1] = tested on: A. aegypti adult females; test: Adult female mosquito toxicity, applied to thoracic cuticle, 24 h; format: in vivo, Aedes aegypti; conditions: for Adult female mosquitoes ED50 in μg/mg mosquito (95% CI), A. aegypti: adult females, 24 h after applying to thoracic cuticle, in acetone
Protocol: (§1) A,C) Concentration-toxicity relationships in 1st instar larvae 24 h after adding CINEX or indicated compound to the rearing water. B,D) Dose-toxicity relationships in adult females 24 h after applying CINEX or indicated compound to the thoracic cuticle. CDIAL=OSU-1.
(§2) Each compound of cinnamodial (CDIAL), cinnafragrin A (CM18) and cinnamosmolide (CMOS) were isolated form the barks of the Madagascan plants Cinnamosma fragrans, Cinnamosma macrocarpa and Cinnamosma madagascariensis. Each was dissolved in 100% acetone and applied directly to the cuticle of adult female mosquitoes (Aedes aegypti, Anopheles gambiae, and Culex pipiens) or 3rd instar nymph soybean aphids (Aphis glycines). The bark extract and the isolated compounds was toxic to larval and adult female mosquitoes within 24 hr in a concentration/dose dependent manner (FIGS. 4 and 5). Among the isolated compounds.

[2] = tested on: soybean aphid Aphis glycines; test: Soybean aphid toxicity, applied to cuticle of 3rd instar nymphs, 24 h; format: in vivo; conditions: for ED50 in aphids: 3rd instar nymphs, 24 h after application to cuticle
Protocol: Dose-toxicity relationships in 3rd instar nymphs 24 h after adding CINEX or indicated compound to the thoracic cuticle. CDIAL=OSU-1.
as §2

[3] = tested on: A. aegypti 1st instar larvae; test: Larval mosquito toxicity, compound added to rearing water, 24 h; format: in vivo, Aedes aegypti; conditions: for Larval mosquitoes EC50 in ppm (95% CI), A. aegypti: larvae, 24 h after adding to rearing water
Protocol: as §1, §2

[4] = tested on: Alpha-glucosidase (EC 3.2.1.20); test: Alpha-Glucosidase Inhibition Assay; format: biochemical; conditions: for alpha-Glucosidase inhibition (%) / Alpha-glucosidase inhibitory activity, in words: 0.1 mg/mL final concentration
Protocol: Alpha-Glucosidase Inhibition Assay.
The assay was performed according to the 126 Journal of Natural Products, 2008. Vol. 71. No. 1 Notes
method described by Oki and co-workers, with slight modifications.^13 alpha-Glucosidase was purchased from Toyobo Co., Ltd. (Osaka. Japan). The enzyme solution was prepared by dissolving 0.6 U/mL of Alpha-glucosidase in 100 mM phosphate buffer (pH 7) containing 2 g/L bovine serum albumin and 0.2 g/L NaN3. p-Nitrophenyl-R-D-glucopyranoside (5 mM) in the same buffer solution (pH 7) was used as a substrate solution. The enzyme solution (50 μL) and the test compounds (10 μL), dissolved in DMSO to a final concentration of 0.1 mg/mL, were mixed in each well of the microliter 96-well culture plates and measured spectrophotometrically (absorbance 405 nm) at zero time, using a microplate reader (Bio-Rad model 550 microplate reader). The mixture was preincubated for 5 min at room temperature before the addition of substrate solution ([…]) and followed by a 5 min incubation at room temperature. The increase in absorbance from zero time was measured. The inhibitory activity was expressed as […] minus the relative absorbance difference (%) of test compounds to absorbance change of the control where the test solution was replaced by DMSO. 1-Deoxynojirimycin (Wako Pure Chemical Industries, Ltd.) 0.3 mM in DMSO was used as a positive control.

[5] = tested on: C. pipiens adult females; test: Adult female mosquito toxicity, applied to thoracic cuticle, 24 h; format: in vivo, Culex pipiens; conditions: 24 h after applying to thoracic cuticle, in acetone
Protocol: (§3) The concentration/dose-toxicity relationships for Ae. aegypti from FIG. 4 are superimposed to facilitate comparisons.
as §2

[6] = tested on: adult female Aedes aegpti; test: Blood-feeding bioassay (mosquito repellency, membrane feeder); format: in vivo, Aedes aegypti; conditions: 20.8 μg/cm^2 on nylon fabric covering the blood source, 1 h
From the text: FIG. 8 is a graph showing repellent efficacy of CINEX and CDIAL (OSU-1) compared to DEET, an industry standard. Values are means±SEM; N=31, 9, 5, and 15 respectively for Control, DEET, CINEX, and CDIAL. Lower-case letters indicate statistical categorization of the means as determined by a one-way ANOVA with a Newman-Keuls posttest (P<0.05).
We used a blood-feeding bioassay to test the efficacy of OSU-1 (CDIAL) and the C. fragrans bark extract (CINEX) to repel mosquitoes from feeding on a blood source. In brief, cages of 20 mosquitoes (adult female Aedes aegpti) were starved for 24 h before being allowed to feed on a membrane feeder (Hemotek) containing defibrinated rabbit blood. After 1 h, the mosquitoes were immobilized on ice and the number of individuals with blood in their abdomen was counted. The membrane feeder maintains the blood at a constant temperature of 37° C. (human body temperature) and is covered with a collagen membrane that mimics human skin. Mosquitoes pierce through the collagen membrane with their proboscis to obtain the blood. […] Lower-case letters indicate statistical categorization of the means as determined by a one-way ANOVA with a Newman-Keuls posttest (P<0.05).

[7] = tested on: C. pipiens larvae; test: Larval mosquito toxicity, compound added to rearing water, 24 h; format: in vivo, Culex pipiens; conditions: 24 h after adding to rearing water
Protocol: as §3, §2

[8] = tested on: Alpha-glucosidase (EC 3.2.1.20); conditions: reported in references 2 and 3; cited from earlier work
[9] = tested on: A. gambiae adult females; test: Adult female mosquito toxicity, applied to thoracic cuticle, 24 h; format: in vivo, Anopheles gambiae; conditions: 24 h after applying to thoracic cuticle, in acetone
Protocol: as §3, §2

[10] = tested on: A. gambiae larvae; test: Larval mosquito toxicity, compound added to rearing water, 24 h; format: in vivo, Anopheles gambiae; conditions: 24 h after adding to rearing water
Protocol: as §3, §2

| Compound | Adult female mosquitoes ED50 in μg/mg mosquito (95% CI), A. aegypti [1] | ED50 in aphids [2] | Larval mosquitoes EC50 in ppm (95% CI), A. aegypti [3] | alpha-Glucosidase inhibition (%) [4] | Alpha-glucosidase inhibitory activity, in words [4] | further results |
| --- | --- | --- | --- | --- | --- | --- |
| CC(=O)O[C@@H]1C=C(C2OC3OC(O)C4=C[C@@H](OC(C)=O)C5C(C)(C)CCC[C@]5(C)[C@]43O2)[C@@](O)(C=O)[C@@]2(C)CCCC(C)(C)C12 (stereo partly shown) [CM18, cinnafragrin A] | 2.03* μg/mg mosquito | 1.7 μg/aphid | 22.6 ppm |  |  |  |
| CC1(C)CCC[C@@]2(C)[C@H]1[C@H](O)C=C1C(=O)OC[C@]12O [Compound 3, pereniporin B] |  |  |  | 7.2% |  |  |
| CC(=O)O[C@@H]1C=C(C=O)[C@@](O)(C=O)[C@@]2(C)CCCC(C)(C)C12 (stereo partly shown) [CDIAL, cinnamodial] | 0.09 μg/mg mosquito | 0.38 μg/aphid | 21.6 ppm | 83.7% | most potent activity | Adult female mosquitoes ED50 in μg/mg mosquito (95% CI), C. pipiens [5]: 0.17† μg/mg mosquito; Percentage of mosquitoes feeding on a blood source, in words [6]: significantly reduced; Toxicity to adult female mosquitoes, in words ([1]; within 24 hr, dose dependent): most potent and efficacious; Toxicity to aphids, in words ([2]; within 24 h of application): most potent; Larval mosquitoes EC50 in ppm (95% CI), C. pipiens [7]: 13.3† ppm; Alpha-glucosidase inhibition, in words, from earlier papers [8]: strong inhibition; Toxicity to larval mosquitoes, in words ([3]; within 24 hr, concentration dependent): most potent and efficacious; Adult female mosquitoes ED50 in μg/mg mosquito (95% CI), A. gambiae [9]: 0.05† μg/mg mosquito; Larval mosquitoes EC50 in ppm (95% CI), A. gambiae [10]: 29.8 ppm |
| CC1(C)CCC[C@]2(C)[C@H](C=O)C(C=O)=CC[C@@H]12 [isopolygodial, reference compound] |  |  |  |  |  | Alpha-glucosidase inhibition, in words, from earlier papers [8]: did not show any activity |
| CC(=O)O[C@@H]1C=C2C(=O)OCC2(O)[C@@]2(C)CCCC(C)(C)C12 (stereo partly shown) [CMOS, cinnamosmolide] | 3.94* μg/mg mosquito | 2.5 μg/aphid | 134.4* ppm | 20.0% |  |  |
| CC1(C)CCC[C@]2(C)[C@@H](C=O)C(C=O)=CC[C@@H]12 [Compound 5, polygodial] |  |  |  | 2.1% | only slight activity; also recorded: did not show any activity |  |
| COC1OC(OC)C2(O)C1=CC(OC(C)=O)C1C(C)(C)CCCC12C (stereo not shown) [Compound 2, cinnamodial 11R,12-dimethyl acetal] |  |  |  | not active |  |  |
| OC[C@H]1NC[C@H](O)[C@@H](O)[C@@H]1O [1-deoxynojirimycin, reference compound] |  |  |  |  |  | alpha-Glucosidase inhibition (%), positive control ([4]; 0.3 mM in DMSO, positive control): 100% |
| CC(=O)O[C@@H]1[C@@H](O)C2=C(C(=O)OC2)[C@@]2(C)CCCC(C)(C)[C@H]12 [Compound 4, ugandensolide] |  |  |  | 46.2% | moderate effects; also recorded: moderate activity |  |
| cinnamadin [Compound 1] |  |  |  | 14.9% | moderate effects |  |
